Reference: patent US7700584B2 (Hangzhou Minsheng Pharmaceuticals Co., Ltd., priority 2004, dated 2010)

Experiments:
[1] = target: T1, HIV-1 proteinase (HIV-1 PR) (Human immunodeficiency virus type 1 group M subtype B, UniProt P04585); assay: Screening for in vitro activity against HIV-1 proteinase; type: biochemical; conditions: read-out: Inhibition rate, 10 nM
T1 construct: HIV-1 proteinase digests the fluorescent-labeled substrate; purchased
Method: Principle of the test: HIV-1 proteinase digests the fluorescent-labeled substrate in an optimal reaction condition and system. The activity of the enzyme can be reflected by the fluorescent intensity in the product of the enzyme reaction. Adding a sample into the reaction system can be used for screening the inhibitor of the enzyme.
1. HIV-1 PR: commercially available, stored at −85° C.
2. Treatment of the samples: Before use, sample was dissolved in DMSO at a suitable concentration, then serially diluted (5×) with double distilled water, five serial dilutions per sample.
3. Positive control: indinavir, purchased from […].
4. Methods: The diluted sample was added into the reaction buffer containing the fluorescent-labeled substrate. Then the genetic engineered target enzyme was added, and incubated in the optimal reaction condition. The fluorescent value was measured with a FLUO star Galaxy luminoscope.

mouse lung cancer Lewis = assay: Activity against mouse grafted lung cancer Lewis; type: in vivo, Kunming mice; conditions: Lewis, first experiment, 1 mg/kg
Method: The experiments were performed according to “Guideline for New Drugs (Western medicines) in Pre-clinical Stages” issued by Bureau of Drug Policy & Administration of the People's Republic of China, and the relevant methods in “Methodology of Pharmaceutical Experiments”, Xu Shuyun et al. ed. 120 male Kunming mice weighting […] were allowed to grow 3 days. No abnormality was observed. The mice were routinely inoculated in oxter with mouse sarcoma S-180, and weighted 4 hrs. after inoculation. The mice were randomly divided into 12 groups, 10 mice/group. Group 1 was given 0.3 ml of physiological saline as negative control; Group 2 was given 5-FU as positive control, 0.6 mg/mouse; Group 3 was given hydroxycamptothecine as positive control, 0.02 mg/mouse. Groups 4, 5 and 6 were injected with 10% Compound 6, 0.4 ml/mouse, 0.2 ml/mouse, and 0.1 ml/mouse, respectively. Groups 7, 8 and 9 were injected with 10% Compound 8, 0.4 ml/mouse, 0.2 ml/mouse, and 0.1 ml/mouse, respectively. Groups 10, 11, and 12 were injected with 10% Compound 20, 0.4 ml/mouse, 0.2 ml/mouse, and 0.1 ml/mouse, respectively. The tested compounds were administered on the next day after inoculation, once a day on alternate days, 6 doses totally administered. On the next day after the end dose, the mice were weighed and sacrificed. After the tumor was excised, body weight and tumor weight were recorded. The tumor inhibition rate was calculated based on the following formula: [(average tumor weight of the control groups−average tumor weight of the experimental groups)/average tumor weight of the control groups]×100%. The data was processed statistically. The above experiments were repeated three times.
The experiments were identical with the experiments for activity against mouse grafted sarcoma S-180, except the following:
(1) the tumor cell line inoculated was mouse lung cancer Lewis;
(2) Compound 6, Compound 8 and Compound 21 were not tested for their activity;
(3) the mice were divided into six groups.

[2] = tested on: Hela human cervical carcinoma; assay: In vitro inhibition rate to tumor cells (MTT), Hela; type: cell-based; conditions: 50 μg/ml
Method: (§1) (1) Single cell suspension was seeded into 96-well plates (×3) (the cells was diluted in the PRMI-1640 minimum medium to 3×10^4 cells/ml, […] diluted cells/well). […] The experiments were performed in quadruplicate.
(§2) (2) The medium was removed. Solutions of the anti-tumor agents (15 compounds) were prepared in a freshly prepared medium at the concentrations indicated in the following Table. […] of the solution was added into each well. Incubation was continued for 48 hours.
(§3) (3) […] of 2 mg/ml MTT was added into each well, and incubated for 4 hours.
(§4) (4) The medium was removed from the well. The microplates were swiftly turned down to throw-off the medium. […] DMSO was added into each well, and vortexed at room temperature for 10 minutes.
(§5) (5) OD value (λ=570 nm) was measured with an Enzyme-Linked Detector.
(§6) (6) The inhibition rates (IR) of cell growth were respectively calculated based on the following equation: IR(%)=[1−(average OD of the experimental group/average OD of the control group)]×100%

[3] = tested on: MCF-7 human mammary adenocarcinoma; assay: In vitro inhibition rate to tumor cells (MTT), MCF-7; type: cell-based; conditions: 50 μg/ml
Method: as §1, §2, §3, §4, §5, §6

[4] = tested on: Bel-7402 human hepatic carcinoma; assay: In vitro inhibition rate to tumor cells (MTT), Bel-7402; type: cell-based; conditions: 50 μg/ml
Method: as §1, §2, §3, §4, §5, §6

[5] = tested on: SMMC-7721 human hepatic carcinoma; assay: In vitro inhibition rate to tumor cells (MTT), SMMC-7721; type: cell-based; conditions: 50 μg/ml
Method: as §1, §2, §3, §4, §5, §6

[6] = tested on: U-937 human histocytic lymphoma; assay: In vitro inhibition rate to tumor cells (MTT), U-937; type: cell-based; conditions: 50 μg/ml
Method: as §1, §2, §3, §4, §5, §6

[7] = tested on: A-549 human lung adenocarcinoma; assay: In vitro inhibition rate to tumor cells (MTT), A-549; type: cell-based; conditions: 50 μg/ml
Method: as §1, §2, §3, §4, §5, §6

[8] = tested on: HL-60 human promyelocytic leukemia; assay: In vitro inhibition rate to tumor cells (MTT), HL-60; type: cell-based; conditions: 50 μg/ml
Method: as §1, §2, §3, §4, §5, §6

[9] = tested on: LLC mouse Lewis lung carcinoma; assay: In vitro inhibition rate to tumor cells (MTT), LLC; type: cell-based; conditions: 50 μg/ml
Method: as §1, §2, §3, §4, §5, §6

SMILES | inhibition at 0.01 µM [1] [%] | Average weight (g)-after administration (mouse lung cancer Lewis) [g] | Inhibition rate (%) (mouse lung cancer Lewis) | Tumor weight (mouse lung cancer Lewis; X ± SD, n = 10) [g] | inhibition rate, Results (%) Hela ([2]; Table 1) [%] | inhibition rate, Results (%) Hela ([2]; Table 2 (repeated screening)) [%] | inhibition rate, Results (%) MCF-7 ([3]; Table 1) [%] | inhibition rate, Results (%) MCF-7 ([3]; Table 2 (repeated screening)) [%] | inhibition rate, Results (%) Bel-7402 ([4]; Table 1) [%] | inhibition rate, Results (%) Bel-7402 ([4]; Table 2 (repeated screening)) [%] | inhibition rate, Results (%) SMMC-7721 ([5]; Table 1) [%] | inhibition rate, Results (%) SMMC-7721 ([5]; Table 2 (repeated screening)) [%] | inhibition rate, Results (%) U-937 ([6]; Table 1) [%] | inhibition rate, Results (%) U-937 ([6]; Table 2 (repeated screening)) [%] | inhibition rate, Results (%) A-549 ([7]; Table 1) [%] | inhibition rate, Results (%) A-549 ([7]; Table 2 (repeated screening)) [%] | inhibition rate, Results (%) HL-60 ([8]; Table 1) [%] | inhibition rate, Results (%) HL-60 ([8]; Table 2 (repeated screening)) [%] | inhibition rate, Results (%) LLC ([9]; Table 1) [%] | inhibition rate, Results (%) LLC ([9]; Table 2 (repeated screening)) [%]
CC(C)(C)NC(=O)[C@@H]1CN(Cc2cccnc2)CCN1C[C@@H](O)C[C@@H](Cc1ccccc1)C(=O)N[C@H]1c2ccccc2C[C@H]1O [indinavir] | 92.1 |  |  |  |  |  |  |  |  |  |  |  |  |  |  |  |  |  |  | 
CC[C@@]1(O)C(=O)OCc2c1cc1n(c2=O)Cc2cc3cc(O)ccc3nc2-1 [Hydioxycamptothecine] |  | 21.0 | 49.7 | 1.50 ± 0.28 |  |  |  |  |  |  |  |  |  |  |  |  |  |  |  | 
CC(C)C1CC23OC1(O)CC(C)(O[N+](=O)[O-])C2CCC3C (centres unmarked) [Compound 36, Curcumol mononitrate without double bond] |  |  |  |  | 62.13 | 65.23 | −1.23 | −2.31 | 0.22 | 0.02 | 15.39 | 14.08 | 6.98 | 5.32 | 9.21 | 1.20 | 1.03 | 2.01 | 11.56 | 11.56
CC(C)C1CC23OC1(O)CC(C)(N1CCNCC1)C2CCC3C.Cl (centres unmarked) [Compound 44, Curcumol piperazine hydrochloride without double bond] |  |  |  |  | 55.14 | 50.01 | 25.55 | 24.11 | −6.54 | 0.23 | −10.53 | −7.89 | 35.64 | 23.56 | 23.01 | 20.33 | 3.71 | 5.37 | 23.35 | 17.565
C=C1CC2(OC(C)=O)OC3(CC2C(C)C)C(C)CCC13 (centres unmarked) [Compound 1, Curcumol acetate] |  |  |  |  | 51.23 | 55.98 | 45.6 | 41.02 | 32.12 | 25.32 | 23.10 | 28.23 | 45.45 | 34.26 | −9.16 | −6.32 | 23.12 | 12.03 | 1.30 | 1.30
CCCCNC1(C)CC2(OC)OC3(CC2C(C)C)C(C)CCC13.Cl (centres unmarked) [Compound 46, Curcumol methyl ether n-butyl amine hydrochloride without double bond] |  |  |  |  | 53.12 | 49.56 | 19.88 | 14.98 | 4.55 | 4.65 | −0.86 | −0.45 | 16.32 | 8.65 | 3.12 | 3.78 | −2.60 | −4.56 | −12.99 | −17.56
CC(=O)OC12CC(=O)C3CCC(C)C3(CC1C(C)C)O2 (centres unmarked) [Compound 49, Curzerenone acetate] |  |  |  |  | 79.8 | 75.65 | 0.65 | 1.56 | 2.69 | 14.02 | −11.3 | −1.78 | 78.65 | 75.23 | 5.36 | 4.23 | 55.35 | 57.89 | −0.15 | 0.12
CC(C)C1CC23OC1(O)CC(CO[N+](=O)[O-])(O[N+](=O)[O-])C2CCC3C (centres unmarked) [Compound 31, Curcumol dinitrate] |  |  |  |  | 57.98 | 55.49 | 16.75 | 14.87 | 0.23 | 8.42 | −1.96 | −4.56 | −0.68 | −12.61 | 8.65 | 4.82 | 16.50 | 2.78 | 1.13 | 1.25
C=CC(=O)OC12CC(=C)C3CCC(C)C3(CC1C(C)C)O2 (centres unmarked) [Compound 22, Curcumol acrylate] |  |  |  |  | 63.20 | 61.88 | 88.32 | 85.02 | 12.80 | 0.23 | 44.39 | 40.32 | 60.32 | 50.23 | 19.23 | 12.36 | 21.01 | 21.03 | −6.01 | −6.41
